Measurements taken from patent publication US20220356163A1, “SMALL MOLECULE INHIBITORS OF Id PROTEINS” (MEMORIAL SLOAN KETTERING CANCER CENTER, priority 2019, published 2022).
Entries after “also recorded” stand apart in the source; their conditions may differ. Like-named read-outs stand apart in the source and are kept apart here.

How the values were obtained:
HCT116 cells = assay: IC50 in HCT116 cells (FIG. 7C); assay type: cell-based
EGI-1 = assay: Cholangiocarcinoma cell viability, EGI-1; assay type: cell-based
Description: (§1) Cell viability assays. Cell lines were seeded in a 96 well plate (5000 cells per well). After overnight incubation, cells were treated with AGX51 and incubated for 24 hours then MTT reagent (5 mg/mL) was added per well and the cells were incubated for four hours. Following incubation, media was aspirated and 200 μL DMSO was added per well. Absorbance was then measured at 570 nm using a plate reader (Synergy 2, BioTek). Cell growth profiles were determined by seeding 38,000 cells in a 24-well plate, in triplicate for each time point, and counting the cells on days 1, 3 and 5 after seeding, using trypan blue exclusion of dead cells.
(§2) The effects of AGX51 and AGX-A on cholangiocarcinoma cell viability were assessed for the six different cholangiocarcinoma cell lines. The measured IC50 values (in μM) from these studies are provided in Table 2 below, along with the ratio of the AGX51 IC50 to the AGX-A IC50 to aid in comparison.

SNU-1079 = assay: Cholangiocarcinoma cell viability, SNU-1079; assay type: cell-based
Description: as §1, §2

HUCC-T1 = assay: Cholangiocarcinoma cell viability, HUCC-T1; assay type: cell-based
Description: as §1, §2

NanoLuc-ID1 = target: T1, NanoLuc-ID1 (Homo sapiens, UniProt P41134); assay: NanoBRET target engagement assay in digitonin-permeabilized 293T cells; assay type: cell-based; details: 2 μM tracer, 0-60 μM competitor, 50 μg/mL digitonin
T1 construct: expressed in transfected cells; host or cells: 293T cells, pcDNA3.1, digitonin-permeabilized
Description: NanoBRET™ target engagement assay. A N-terminal NanoLuc® luciferase ID1 fusion protein was synthesized by Genewiz (South Plainfield, N.J., USA) into the pUC57 backbone and then cloned into the pcDNA3.1 plasmid with EcoRI-HF and XbaI (both enzymes from New England Biolabs, Ipswich, Mass., USA). The assay was performed essentially as described in the NanoBRET™ TE Intracellular BET BRD Assay kit manual (Promega Corporation, Madison, Wis., USA). Briefly, cells were transfected and after 24 hours were plated onto flat bottom, non-binding surface, white, polystyrene 96-well plates (Corning Incorporated, Kennebunk, Me., USA). The AGX51 tracer was then added ([…]), followed by digitonin (Sigma, St. Louis, Mo., USA) to permeabilize the cells ([…]). The NanoBRET™ Nano-Glo® Substrate (Promega) was then added and readings taken using a GloMax Discover System instrument (Promega). For the competition assays, cells were treated with 2 μM of AGX51 tracer and 0-60 μM of AGX-A or AGX51.
This assay is based on the NanoBRET™ Target Engagement Intracellular BET BRD Assay (Promega). A construct expressing a NanoLuc® luciferase ID1 fusion protein and an AGX51-fluorescent tracer was generated (FIG. 10A). […]

Id1 = target: T2, Id1 (Mus musculus, UniProt P20067); assay: Circular dichroism (CD) of Id1; assay type: binding
T2 construct: GST (N, cleaved yes); made in house; host or cells: E. coli Rosetta 2(DE3)
T2 sequence (P20067 1-168): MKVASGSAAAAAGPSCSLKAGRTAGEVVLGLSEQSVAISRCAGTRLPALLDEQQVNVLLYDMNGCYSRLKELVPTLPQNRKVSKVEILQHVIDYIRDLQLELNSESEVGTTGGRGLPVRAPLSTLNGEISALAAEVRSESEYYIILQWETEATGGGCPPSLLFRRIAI
Description: Id protein purification. pGEV-PSP-mId1 and mId3 expression constructs were transformed into Rosetta 2(DE3) Competent Cells (Sigma Millipore) for protein expression. To produce recombinant GST-tagged protein, a 50 mL LB/Ampicillin (100 μg/m)+Chloramphenicol (25 μg/mL) culture was grown overnight at 37° C. Early the next day, the overnight culture was diluted 1:100 into 6 L LB/Ampicillin+Chloramphenicol and cultured at 37° C. for about four hours until OD600=0.7. Cultures were induced with 1 mM IPTG and incubated at 16° C. for 16-18 hours. Cells were harvested by centrifugation at 4000 rpm for 15 minutes at 4° C. and the pellet was resuspended in lysis buffer (50 mM Tris pH 8.0; 400 mM NaCl; 0.5 mM TCEP, Protease Inhibitor Cocktail) (25 mL/L of culture). To lyse the cells, Triton X-100 and lysozyme were added to 0.1% and 10 μg/mL respectively, incubated for 30 minutes on ice and sonicated. Lysates were spun at 17,000 rpm for 30 minutes at 4° C. and supernatants were filtered through a […] filter before incubation with glutathione sepharose for two hours at 4° C. The sepharose with bound protein was run through a polypropylene column and washed twice with 50 mL wash buffer (50 mM Tris pH 8.0; 400 mM NaCl) before protein was eluted with 10 mL 50 mM glutathione elution buffer, pH 8.0. Protein was subjected to buffer exchange with PD10 columns (Sigma) into 12 mL storage buffer (50 mM Tris HCl pH 8.0, 400 mM NaCl, 10 mM EDTA, 1 mM DTT, 10% Glycerol).
GST-tag was cleaved with PreScission Protease (0.1 μL of 0.3 μg/μL PreScission Protease cleaves 10 μg of GST-mId1 when incubated at 4° C. for four hours) and incubated with Glutathione Sepharose to separate out the cleaved GST-tag. The cleaved mId1 protein was further cleaned by incubation with GST antibodies (Abcam #ab9085-200 μL anti-GST rabbit polyclonal; ThermoFisher #MA4-004 anti-GST mouse monoclonal) before Coomassie gel analysis. Cleaved protein was concentrated to desired strength using Amicon 3000MCO Ultra-4 centrifugal columns (UFC800308).
Circular dichroism. […]

SNU-1196 = assay: Cholangiocarcinoma cell viability, SNU-1196; assay type: cell-based
Description: as §1, §2

TFK-1 = assay: Cholangiocarcinoma cell viability, TFK-1; assay type: cell-based
Description: as §1, §2

WITT = assay: Cholangiocarcinoma cell viability, WITT; assay type: cell-based
Description: as §1, §2

T1 sequence (P41134 whole entry): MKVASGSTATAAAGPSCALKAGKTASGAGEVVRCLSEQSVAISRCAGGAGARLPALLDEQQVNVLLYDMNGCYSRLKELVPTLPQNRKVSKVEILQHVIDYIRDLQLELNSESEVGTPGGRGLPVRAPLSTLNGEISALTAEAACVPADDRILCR

CCC(=O)N(CCC(c1ccc2c(c1)OCO2)c1ccccc1OC)Cc1ccccc1 (racemic) [AGX51, N-(3-(benzo[d][1,3]dioxol-5-yl)-3-(2-methoxyphenyl)propyl)-N-benzylpropionamide] gave an IC50 (HCT116 cells; Homo sapiens, HCT-116, HCT116 cells, FIG. 7C) of 22.3 µM, an IC50 (EGI-1; Homo sapiens) of 15.7 µM and an IC50 (SNU-1079) of 23.1 µM. For the same compound, the IC50 (HUCC-T1; Homo sapiens, HuCCT-1) was 14.8 µM, the “competition with AGX51 tracer” value (NanoLuc-ID1) was “could be competed with AGX51” and the “alteration of Id1 secondary structure (CD spectra)” value (Id1; 0, 10, 20 and 50 μM) was “significant alteration in the secondary structure of Id1”. The Kd (Id1; implied from saturation of CD changes, read-out: concentration at which CD changes saturated / range of dissociation constant) was about 20 µM, the IC50 (SNU-1196) was 28.8 µM and the IC50 (TFK-1; TFK-1) was 15.7 µM. It also gave an IC50 (WITT) of 33.2 µM.
In the case of COc1ccccc1C(CCNCc1ccccc1)c1ccc(OC(C)C)cc1 (centres unmarked) [AGX-A, N-benzyl-3-(4-isopropoxyphenyl)-3-(2-methoxyphenyl)propan-1-anine], the “fold reduction in IC50 values vs AGX51” value (HCT116 cells; cell-based assays, FIGS. 7C-7D (HCT116 and 4T1)) is reported as about 4 fold, the “(AGX51 IC50)/(AGX-A IC50)” value (EGI-1) is reported as 3.49 and the IC50 (EGI-1) is reported as 4.49 µM. For the same compound, the “(AGX51 IC50)/(AGX-A IC50)” value (SNU-1079) was 3.95, the IC50 (SNU-1079) was 5.84 µM and the “(AGX51 IC50)/(AGX-A IC50)” value (HUCC-T1) was 3.33. The IC50 (HUCC-T1) was 4.44 µM, the “competition with AGX51 tracer” value (NanoLuc-ID1) was “more efficiently; also recorded: exhibiting greater activity than AGX51; also recorded: worked at lower concentrations than AGX51” and the “relative activity in CD assay with Id1” value (Id1; comparison between compounds) was “exhibiting greater activity than AGX51; also recorded: worked at lower concentrations than AGX51”. For the same compound, the “(AGX51 IC50)/(AGX-A IC50)” value (SNU-1196) was 1.94, the IC50 (SNU-1196) was 14.8 µM and the “dose-dependent effect on TFK1 cell viability vs AGX51” value (TFK-1; 24 hour period, FIG. 23) was “superior anti-cancer potency”. The “(AGX51 IC50)/(AGX-A IC50)” value (TFK-1; TFK-1) was 1.33, the IC50 (TFK-1; TFK-1) was 11.8 µM and the “(AGX51 IC50)/(AGX-A IC50)” value (WITT) was 6.25. The IC50 (WITT) was 5.32 µM.
